Calls of active or inactive are those of the source. The calls are words filed in the database; no cut-off is given here.
Legend:
[1] = target: T1, von Hippel-Lindau disease tumor suppressor/SWI/SNF-related matrix-associated actin-dependent regulator of chromatin subfamily A member 2 (Homo sapiens, UniProt P51531+P40337); assay: In vivo PROTAC activity at VHL/SMARCA2 in SCID mouse xenografted with human MV4-11 cells assessed as reduction of SMARCA2 level in tumor at 50 mg/kg, iv administered as single dose measured after 48 hrs by Western blotting analysis; type: ADME, organism-based; set-up: scale not given: the % may be the effect or the level left
[2] = tested on: NCI-H1792; assay: Antiproliferative activity against human NCI-H1792 cells expressing wild-type SMARCA2 assessed as cell growth inhibition by measuring maximal efficacy measured after 7 days by WST-8 assay relative to control; type: functional; conditions: time 7 day
[3] = target: T1, von Hippel-Lindau disease tumor suppressor/SWI/SNF-related matrix-associated actin-dependent regulator of chromatin subfamily A member 2; assay: PROTAC activity at VHL/C-terminal HiBiT fused SMARCA2 in human HeLa cells assessed as induction of SMARCA2 degradation pre-treated with MLN4924 for 2 hrs followed by compound treatment for 24 hrs by Nano-Glo HiBiT analysis; type: cell-based
Target sequence in this assay (P40337 whole entry, looked up): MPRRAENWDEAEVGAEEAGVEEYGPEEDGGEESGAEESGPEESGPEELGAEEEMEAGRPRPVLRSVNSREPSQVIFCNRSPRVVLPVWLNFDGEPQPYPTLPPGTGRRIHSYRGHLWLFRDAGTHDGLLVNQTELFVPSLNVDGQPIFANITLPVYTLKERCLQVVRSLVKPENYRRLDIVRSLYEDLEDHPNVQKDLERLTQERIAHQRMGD
Target sequence in this assay (P51531 whole entry, looked up): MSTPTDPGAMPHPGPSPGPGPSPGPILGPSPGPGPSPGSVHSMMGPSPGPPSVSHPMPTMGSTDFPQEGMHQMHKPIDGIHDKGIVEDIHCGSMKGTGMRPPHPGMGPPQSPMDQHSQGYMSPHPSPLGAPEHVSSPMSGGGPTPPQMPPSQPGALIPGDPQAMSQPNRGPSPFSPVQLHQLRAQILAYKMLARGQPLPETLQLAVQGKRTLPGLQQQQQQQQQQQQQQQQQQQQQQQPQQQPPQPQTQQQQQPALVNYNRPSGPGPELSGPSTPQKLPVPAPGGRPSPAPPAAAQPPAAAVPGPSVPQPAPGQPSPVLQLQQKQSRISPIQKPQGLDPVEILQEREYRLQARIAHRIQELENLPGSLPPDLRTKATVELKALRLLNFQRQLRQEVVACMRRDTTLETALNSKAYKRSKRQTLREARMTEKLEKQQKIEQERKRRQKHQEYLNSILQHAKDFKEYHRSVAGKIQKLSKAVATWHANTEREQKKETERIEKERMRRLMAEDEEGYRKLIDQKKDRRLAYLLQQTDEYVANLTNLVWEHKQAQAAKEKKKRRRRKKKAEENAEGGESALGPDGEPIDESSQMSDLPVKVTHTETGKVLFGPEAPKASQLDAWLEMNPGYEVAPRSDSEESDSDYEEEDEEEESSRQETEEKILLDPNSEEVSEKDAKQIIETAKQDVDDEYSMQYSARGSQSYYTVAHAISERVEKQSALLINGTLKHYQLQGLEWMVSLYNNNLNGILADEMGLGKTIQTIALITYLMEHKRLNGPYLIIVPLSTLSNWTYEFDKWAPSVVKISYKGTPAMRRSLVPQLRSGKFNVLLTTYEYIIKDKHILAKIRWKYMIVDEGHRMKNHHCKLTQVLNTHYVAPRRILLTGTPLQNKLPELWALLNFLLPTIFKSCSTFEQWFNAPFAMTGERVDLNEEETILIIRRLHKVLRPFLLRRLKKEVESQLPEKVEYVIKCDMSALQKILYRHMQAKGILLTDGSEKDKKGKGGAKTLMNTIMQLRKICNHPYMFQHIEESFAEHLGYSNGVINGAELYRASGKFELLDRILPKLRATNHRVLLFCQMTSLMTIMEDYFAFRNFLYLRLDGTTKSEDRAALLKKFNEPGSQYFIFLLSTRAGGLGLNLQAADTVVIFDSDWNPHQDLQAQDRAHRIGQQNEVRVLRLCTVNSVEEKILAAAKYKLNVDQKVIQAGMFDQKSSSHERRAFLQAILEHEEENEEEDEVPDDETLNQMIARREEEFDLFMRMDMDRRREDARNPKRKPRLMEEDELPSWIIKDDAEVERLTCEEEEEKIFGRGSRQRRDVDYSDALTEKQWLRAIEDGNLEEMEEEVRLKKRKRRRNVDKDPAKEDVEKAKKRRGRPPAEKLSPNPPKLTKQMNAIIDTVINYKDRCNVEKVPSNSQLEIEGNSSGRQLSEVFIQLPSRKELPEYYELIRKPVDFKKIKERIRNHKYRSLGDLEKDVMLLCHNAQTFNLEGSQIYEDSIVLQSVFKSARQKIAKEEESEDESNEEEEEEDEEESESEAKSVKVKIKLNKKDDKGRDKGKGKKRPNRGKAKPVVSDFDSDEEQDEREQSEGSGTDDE

[4] = target: T1, von Hippel-Lindau disease tumor suppressor/SWI/SNF-related matrix-associated actin-dependent regulator of chromatin subfamily A member 2; assay: PROTAC activity at VHL/wild-type SMARCA2 in human NCI-H838 cells assessed as induction of SMARCA2 degradation incubated for 24 hrs by Western blotting analysis; type: cell-based
[5] = tested on: SK-MEL-5; assay: Antitumor activity against SMARCA4-deficient human SK-MEL-5 cells xenografted in SCID mouse assessed as tumor growth inhibition at 25 mg/kg, iv administered twice a week measured after 32 days relative to control; type: functional; conditions: SK-MEL-5, 768 h, time 32 day, read-out: TGI
[6] = Toxicity in SCID mouse xenografted with human SK-MEL-5 cells assessed as effect on change in body weight at 50 mg/kg, iv administered twice a week measured after 3 weeks; type: organism-based; conditions: in vivo, 504 h
[7] = target: T1, von Hippel-Lindau disease tumor suppressor/SWI/SNF-related matrix-associated actin-dependent regulator of chromatin subfamily A member 2; assay: PROTAC activity at VHL/C-terminal HiBiT fused SMARCA2 in human HeLa cells assessed as induction of SMARCA2 degradation at 0.001 to 10 uM by Nano-Glo HiBiT analysis; type: cell-based; conditions: dose 0.001-10 µM, time 1-48 hrs, TDE = time-dependent effect
Target sequence in this assay (P40337 whole entry, looked up): as the sequence (P40337 whole entry, looked up) above
Target sequence in this assay (P51531 whole entry, looked up): as the sequence (P51531 whole entry, looked up) above

[8] = target: T2, von Hippel-Lindau disease tumor suppressor/SWI/SNF-related matrix-associated actin-dependent regulator of chromatin subfamily A member 4 (Homo sapiens, UniProt P51532+P40337); assay: In vivo PROTAC activity at VHL/SMARCA4 in SCID mouse xenografted with human MV4-11 cells assessed as remaining activity in tumor at 50 mg/kg, iv administered as single dose measured after 6 hrs by Western blotting analysis (reference value: 100 +/- 15 % ); type: ADME, organism-based
Target sequence in this assay (P51532 whole entry): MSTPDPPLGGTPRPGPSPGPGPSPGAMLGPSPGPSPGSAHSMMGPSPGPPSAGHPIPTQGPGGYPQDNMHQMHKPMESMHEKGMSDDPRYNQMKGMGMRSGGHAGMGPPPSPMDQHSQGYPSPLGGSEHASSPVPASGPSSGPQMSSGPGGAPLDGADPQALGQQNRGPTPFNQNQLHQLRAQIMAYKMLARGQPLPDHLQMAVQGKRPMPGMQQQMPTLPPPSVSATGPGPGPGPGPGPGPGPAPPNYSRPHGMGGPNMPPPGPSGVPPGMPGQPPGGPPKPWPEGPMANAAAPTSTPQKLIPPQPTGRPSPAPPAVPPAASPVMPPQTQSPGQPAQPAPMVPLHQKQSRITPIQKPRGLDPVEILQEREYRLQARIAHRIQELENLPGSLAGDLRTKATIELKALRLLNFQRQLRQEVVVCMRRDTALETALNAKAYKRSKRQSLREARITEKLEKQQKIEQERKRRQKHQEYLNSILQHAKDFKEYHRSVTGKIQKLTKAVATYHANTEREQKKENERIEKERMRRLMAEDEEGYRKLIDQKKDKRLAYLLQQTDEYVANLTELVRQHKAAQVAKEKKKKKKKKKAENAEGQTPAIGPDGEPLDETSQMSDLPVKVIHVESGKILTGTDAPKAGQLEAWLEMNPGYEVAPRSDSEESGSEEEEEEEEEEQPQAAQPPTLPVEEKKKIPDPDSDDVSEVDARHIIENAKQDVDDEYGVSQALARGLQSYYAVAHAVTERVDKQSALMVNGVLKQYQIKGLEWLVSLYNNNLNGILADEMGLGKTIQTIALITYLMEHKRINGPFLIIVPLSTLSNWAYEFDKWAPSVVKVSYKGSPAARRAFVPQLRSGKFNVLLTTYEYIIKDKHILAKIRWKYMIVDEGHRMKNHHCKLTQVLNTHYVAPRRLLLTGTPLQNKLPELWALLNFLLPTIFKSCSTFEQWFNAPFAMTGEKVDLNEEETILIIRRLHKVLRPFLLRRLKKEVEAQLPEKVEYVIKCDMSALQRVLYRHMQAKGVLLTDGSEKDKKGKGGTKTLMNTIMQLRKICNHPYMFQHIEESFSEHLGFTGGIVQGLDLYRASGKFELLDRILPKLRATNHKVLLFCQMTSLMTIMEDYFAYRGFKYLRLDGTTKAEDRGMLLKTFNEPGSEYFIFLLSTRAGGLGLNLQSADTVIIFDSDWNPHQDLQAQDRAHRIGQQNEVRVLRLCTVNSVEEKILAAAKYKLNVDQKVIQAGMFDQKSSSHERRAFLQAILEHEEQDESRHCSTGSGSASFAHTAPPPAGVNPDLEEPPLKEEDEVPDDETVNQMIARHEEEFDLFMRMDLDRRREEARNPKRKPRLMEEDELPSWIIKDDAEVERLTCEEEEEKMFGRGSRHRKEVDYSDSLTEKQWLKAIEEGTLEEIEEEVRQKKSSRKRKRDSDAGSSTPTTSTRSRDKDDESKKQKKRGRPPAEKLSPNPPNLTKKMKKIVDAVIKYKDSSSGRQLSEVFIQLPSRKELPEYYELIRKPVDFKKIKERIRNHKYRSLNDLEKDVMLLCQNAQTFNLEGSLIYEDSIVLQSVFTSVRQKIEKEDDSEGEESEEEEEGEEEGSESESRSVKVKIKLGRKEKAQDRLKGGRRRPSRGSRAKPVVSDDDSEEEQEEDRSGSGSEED
Target sequence in this assay (P40337 whole entry): as the sequence (P40337 whole entry, looked up) above

[9] = target: T2, von Hippel-Lindau disease tumor suppressor/SWI/SNF-related matrix-associated actin-dependent regulator of chromatin subfamily A member 4; assay: PROTAC activity at VHL/wild-type SMARCA4 in human SK-MEL-28 cells assessed as induction of SMARCA4 degradation at 0.001 to 1000 nM incubated for 24 hrs by Western blotting analysis relative to control; type: cell-based; conditions: dose 0.001-1000 nM
[10] = target: T2, von Hippel-Lindau disease tumor suppressor/SWI/SNF-related matrix-associated actin-dependent regulator of chromatin subfamily A member 4; assay: In vivo PROTAC activity at VHL/SMARCA4 in SCID mouse xenografted with human MV4-11 cells assessed as remaining activity in tumor at 50 mg/kg, iv administered as single dose measured after 24 hrs by Western blotting analysis (reference value: 100 +/- 15 % ); type: ADME, organism-based
Target sequence in this assay (P51532 whole entry): as the sequence (P51532 whole entry) above
Target sequence in this assay (P40337 whole entry): as the sequence (P40337 whole entry, looked up) above

[11] = target: T2, von Hippel-Lindau disease tumor suppressor/SWI/SNF-related matrix-associated actin-dependent regulator of chromatin subfamily A member 4; assay: PROTAC activity at VHL/C-terminal HiBiT fused SMARCA4 in human HeLa cells assessed as induction of SMARCA4 degradation by measuring maximal efficacy incubated for 24 hrs by Nano-Glo HiBiT analysis relative to control; type: cell-based
[12] = Drug concentration in SCID mouse tumor xenografted with human MV4-11 cells at 50 mg/kg, iv measured after 72 hrs by LC-MS/MS method; type: ADME, organism-based, Neoplasm; conditions: read-out: Ct
[13] = target: T2, von Hippel-Lindau disease tumor suppressor/SWI/SNF-related matrix-associated actin-dependent regulator of chromatin subfamily A member 4; assay: PROTAC activity at VHL/C-terminal HiBiT fused SMARCA4 in human HeLa cells assessed as induction of SMARCA4 degradation incubated for 6 hrs by Nano-Glo HiBiT analysis; type: cell-based
Target sequence in this assay (P51532 whole entry): as the sequence (P51532 whole entry) above
Target sequence in this assay (P40337 whole entry): as the sequence (P40337 whole entry, looked up) above

[14] = tested on: NCI-H647; assay: Antiproliferative activity against human NCI-H647 cells expressing wild-type SMARCA2 assessed as cell growth inhibition measured after 7 days by WST-8 assay; type: functional; conditions: NCI-H647, 168 h, time 7 day
[15] = target: T1, von Hippel-Lindau disease tumor suppressor/SWI/SNF-related matrix-associated actin-dependent regulator of chromatin subfamily A member 2; assay: PROTAC activity at VHL/C-terminal HiBiT fused SMARCA2 in human HeLa cells assessed as induction of SMARCA2 degradation at 0.0001 to 1 uM incubated for 1 hr by Nano-Glo HiBiT analysis relative to control; type: cell-based; conditions: dose 0.0001-1 µM
Target sequence in this assay (P40337 whole entry, looked up): as above
Target sequence in this assay (P51531 whole entry, looked up): as the sequence (P51531 whole entry, looked up) above

[16] = tested on: A549; assay: Antiproliferative activity against SMARCA4-deficient human A549 cells assessed as cell growth inhibition measured after 7 days by WST-8 assay; type: functional; conditions: A549, 168 h, time 7 day
[17] = Drug concentration in SCID mouse plasma xenografted with human MV4-11 cells at 50 mg/kg, iv measured after 24 hrs by LC-MS/MS method; type: ADME, organism-based
[18] = tested on: NCI-H1299; assay: Antiproliferative activity against SMARCA4-deficient human NCI-H1299 cells assessed as cell growth inhibition measured after 7 days by WST-8 assay; type: functional; conditions: NCI-H1299, 168 h, time 7 day
[19] = target: T1, von Hippel-Lindau disease tumor suppressor/SWI/SNF-related matrix-associated actin-dependent regulator of chromatin subfamily A member 2; assay: In vivo PROTAC activity at VHL/SMARCA2 in SCID mouse xenografted with human NCI-H838 cells assessed as remaining activity in tumor at 50 mg/kg, iv administered as single dose measured after 3 hrs by Western blotting analysis (reference value: 100 +/- 7% ); type: functional, organism-based
Target sequence in this assay (P40337 whole entry, looked up): as the sequence (P40337 whole entry, looked up) above
Target sequence in this assay (P51531 whole entry, looked up): as the sequence (P51531 whole entry, looked up) above

[20] = target: T1, von Hippel-Lindau disease tumor suppressor/SWI/SNF-related matrix-associated actin-dependent regulator of chromatin subfamily A member 2; assay: PROTAC activity at VHL/C-terminal HiBiT fused SMARCA2 in human HeLa cells assessed as induction of SMARCA2 degradation incubated for 3 hrs by Nano-Glo HiBiT analysis; type: cell-based
[21] = target: T1, von Hippel-Lindau disease tumor suppressor/SWI/SNF-related matrix-associated actin-dependent regulator of chromatin subfamily A member 2; assay: PROTAC activity at VHL/wild-type SMARCA2 in human SK-MEL-5 cells assessed as induction of SMARCA2 degradation at 0.001 to 1000 nM incubated for 24 hrs by Western blotting analysis relative to control; type: cell-based; conditions: dose 0.001-1000 nM
Target sequence in this assay (P40337 whole entry, looked up): as the sequence (P40337 whole entry, looked up) above
Target sequence in this assay (P51531 whole entry, looked up): as the sequence (P51531 whole entry, looked up) above

[22] = tested on: A549; assay: Antiproliferative activity against SMARCA4-deficient human A549 cells assessed as cell growth inhibition by measuring maximal efficacy measured after 7 days by WST-8 assay relative to control; type: functional; conditions: time 7 day
[23] = target: T2, von Hippel-Lindau disease tumor suppressor/SWI/SNF-related matrix-associated actin-dependent regulator of chromatin subfamily A member 4; assay: In vivo PROTAC activity at VHL/SMARCA4 in SCID mouse xenografted with human MV4-11 cells assessed as remaining activity in tumor at 50 mg/kg, iv administered as single dose measured after 48 hrs by Western blotting analysis (reference value: 100 +/- 15 % ); type: ADME, organism-based
Target sequence in this assay (P51532 whole entry): as the sequence (P51532 whole entry) above
Target sequence in this assay (P40337 whole entry): as the sequence (P40337 whole entry, looked up) above

[24] = target: T2, von Hippel-Lindau disease tumor suppressor/SWI/SNF-related matrix-associated actin-dependent regulator of chromatin subfamily A member 4; assay: PROTAC activity at VHL/C-terminal HiBiT fused SMARCA4 in human HeLa cells assessed as induction of SMARCA4 degradation incubated for 3 hrs by Nano-Glo HiBiT analysis; type: cell-based
Target sequence in this assay (P51532 whole entry): as the sequence (P51532 whole entry) above
Target sequence in this assay (P40337 whole entry): as the sequence (P40337 whole entry, looked up) above

[25] = tested on: NCI-H1975; assay: Antiproliferative activity against human NCI-H1975 cells expressing wild-type SMARCA2 assessed as cell growth inhibition by measuring maximal efficacy measured after 7 days by WST-8 assay relative to control; type: functional; conditions: time 7 day
[26] = target: T1, von Hippel-Lindau disease tumor suppressor/SWI/SNF-related matrix-associated actin-dependent regulator of chromatin subfamily A member 2; assay: In vivo PROTAC activity at VHL/SMARCA2 in SCID mouse xenografted with human MV4-11 cells assessed as remaining activity in tumor at 50 mg/kg, iv administered as single dose measured after 24 hrs by Western blotting analysis (reference value: 100 +/- 15 % ); type: ADME, organism-based

Q: For `Cc1ncsc1-c1ccc([C@H](C)NC(=O)[C@@H]2C[C@@H](O)CN2C(=O)[C@@H](NC(=O)[C@H]2CC[C@H](CN3CC4(CCC(n5cc(-c6cc(-c7ccccc7O)nnc6N)cn5)CC4)C3)CC2)C(C)(C)C)cc1`, which Activity [1] is on record?
A: 83%

Q: What about the Imax [2] of the same compound?
A: 25%

Q: What about the Activity [3] of the same compound?
A: inactive

Q: What about the DC50 [4] of the same compound?
A: 63 nM

Q: What about the inhibition in vivo at 25 mg/kg [5] of the same compound?
A: 54%

Q: And the Activity [6]?
A: Non-Toxic

Q: And the Activity [7]?
A: Tde

Q: What about the Activity [8] of the same compound?
A: 83%

Q: What about the Emax [9] of the same compound?
A: 24%

Q: What about the Activity [10] of the same compound?
A: 71%

Q: And the Emax [11]?
A: 44%

Q: And the concentration at 72 h [12]?
A: 370 ng/g

Q: And the DC50 [13]?
A: > 3300 nM

Q: What about the GI50 [14] of the same compound?
A: 3100 nM

Q: And the Emax [15]?
A: 66%

Q: And the GI50 [16]?
A: 42 nM

Q: And the concentration at 24 h [17]?
A: 218 ng/mL

Q: And the GI50 [18]?
A: > 10000 nM

Q: What about the Activity [19] of the same compound?
A: 30%

Q: What about the DC50 [20] of the same compound?
A: 63 nM

Q: What about the Emax [21] of the same compound?
A: 94%

Q: And the Imax [22]?
A: 51%

Q: What about the Activity [23] of the same compound?
A: 87%

Q: What about the DC50 [24] of the same compound?
A: > 3300 nM

Q: What about the Imax [25] of the same compound?
A: 47%

Q: What about the Activity [26] of the same compound?
A: 14%

Reference: ChEMBL document CHEMBL5325488, “Discovery of SMD-3040 as a Potent and Selective SMARCA2 PROTAC Degrader with Strong in vivo Antitumor Activity” (J Med Chem, 2023)
